The target of assay [1] is T1, GST-tagged Tankyrase-2 (873-1166 aa) (Homo sapiens, UniProt Q9H2K2).
T1 construct: GST-tagged Tankyrase-2 (873-1166 aa)
Put plainly: Tankyrase 2 autoparsylation assay (HTRF enzyme assay). It is filed as biochemical. An outline of the steps:
(§1)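 ~250 nM GST-tagged enzyme with 5 μM biotin-NAD in HEPES/Mg/DTT buffer pH 7.7, 10 compound concentrations, 90 min at 30 °C; EDTA stop. Eu-anti-GST/streptavidin-Xlent HTRF read (665/615 ratio) after 1 h RT. IC50 relative to inhibitor-free reaction and 5 μM XAV-939 as zero.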
In general terms: TR-FRET usually uses a lanthanide donor and a delayed reading to cut background.

The subject of assay [2] is tankyrase 1/2. Put plainly: Cellular inhibition of Tankyrase: increase of Axin2 level in DLD1 cells (Luminex). The following applies: 24 hours, read-out: EC50 tankyrase 1/2 (cell assay). The format is cell-based. An outline of the steps: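 DLD1 colon carcinoma cells treated 24 h with seven-step serial dilutions in triplicate (0.3% DMSO final). Axin2 in cleared lysates captured on anti-Axin2 beads, detected with polyclonal anti-Axin2 plus PE secondary, and quantified by Luminex. EC50 from data normalized to solvent control; IWR-2 (3E-06 M) marks maximal Axin2 increase.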

Assay [3] concerns the target T2, GST-tagged Tankyrase-1 (1023-1327 aa) (Homo sapiens, UniProt O95271).
T2 construct: GST-tagged Tankyrase-1 (1023-1327 aa)
The assay can be described thus: Tankyrase 1 autoparsylation assay (HTRF enzyme assay). It is filed as biochemical. An outline of the steps:
as §1

We go through 20 compounds from patent US9120805B2, “Substituted pyrrolo[1,2-A]pyrazin-1-ones and pyrazolo[1,5-A]pyrazin-4-ones as inhibitors of tankyrase and poly(ADP-ribose)polymerase activity” (Merck Patent GmbH, priority 2012, dated 2015).

Some results are limits rather than exact numbers.

T2 sequence (O95271 1023-1327): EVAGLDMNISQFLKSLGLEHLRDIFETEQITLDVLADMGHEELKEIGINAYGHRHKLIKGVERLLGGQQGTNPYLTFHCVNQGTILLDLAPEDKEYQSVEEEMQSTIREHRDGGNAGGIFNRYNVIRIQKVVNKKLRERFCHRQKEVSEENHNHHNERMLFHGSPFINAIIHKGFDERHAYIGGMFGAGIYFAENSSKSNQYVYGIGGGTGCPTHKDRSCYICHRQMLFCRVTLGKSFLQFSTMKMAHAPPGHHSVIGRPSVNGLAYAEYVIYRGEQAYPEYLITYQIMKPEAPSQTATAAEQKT
T1 sequence (Q9H2K2 873-1166): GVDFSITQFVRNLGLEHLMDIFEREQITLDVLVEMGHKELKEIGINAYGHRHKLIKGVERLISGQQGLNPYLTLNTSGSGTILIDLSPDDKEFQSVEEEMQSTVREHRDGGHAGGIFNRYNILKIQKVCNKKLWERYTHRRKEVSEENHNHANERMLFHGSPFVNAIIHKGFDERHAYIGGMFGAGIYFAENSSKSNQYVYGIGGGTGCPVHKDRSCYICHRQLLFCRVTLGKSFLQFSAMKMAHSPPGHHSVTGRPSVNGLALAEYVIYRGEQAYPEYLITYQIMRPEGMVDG

For the compound `CC(C)(C)c1ccc(-c2cn3cccc3c(=O)[nH]2)cc1` [Compound A11, 3-(4-tert-butyl-phenyl)-2H-pyrrolo[1,2-a]pyrazin-1-one], the IC50 in assay [1] and in assay [3] was less than 300 nM each time. Also, the EC50 in assay [2] is less than 300 nM.
Regarding `Cc1ccc(-c2cn3cccc3c(=O)[nH]2)cc1` [Compound A12, 3-p-tolyl-2H-pyrrolo[1,2-a]pyrazin-1-one], the IC50 (in general, the concentration that gives 50% inhibition) in assay [1] is 300 to 3000 nM; in assay [3], less than 300 nM. Also, the EC50 in assay [2] is 300 to 3000 nM.
On to `Cn1cc(-c2ccc(-c3cn4cccc4c(=O)[nH]3)cc2)cn1` [Compound A25, 3-[4-(1-methyl-1H-pyrazol-4-yl)-phenyl]-2H-pyrrolo[1,2-a]pyrazin-1-one], for which the IC50 in assay [1] and in assay [3] was less than 300 nM in each case. Moreover, the EC50 in assay [2] was less than 300 nM.
For the compound `CC(C)(O)c1ccc(-c2cn3cccc3c(=O)[nH]2)cc1` [Compound A29, 3-[4-(1-hydroxy-1-methyl-ethyl)-phenyl]-2H-pyrrolo[1,2-a]pyrazin-1-one], the IC50 in assay [1] and in assay [3] was less than 300 nM throughout. Also, the EC50 in assay [2] was less than 300 nM.
Consider `CC(C)(C)c1ccc(-c2cn3cc(F)cc3c(=O)[nH]2)cc1` [Compound A35, 3-(4-tert-butyl-phenyl)-7-fluoro-2H-pyrrolo[1,2-a]pyrazin-1-one], for which the IC50 in assay [1] and in assay [3] was less than 300 nM each time. In assay [2], the EC50 is less than 300 nM.
With `Cc1cc2c(=O)[nH]c(-c3ccc(C(C)(C)O)cc3)cn2n1` [Compound A46, 6-[4-(1-hydroxy-1-methyl-ethyl)phenyl]-2-methyl-5H-pyrazolo[1,5-a]pyrazin-4-one], the IC50 in assay [1] is 300 to 3000 nM; in assay [3] it was less than 300 nM. For the same compound, in assay [2], the EC50 is 300 to 3000 nM.
For `Cc1cc2c(=O)[nH]c(-c3ccc(C(C)(C)O)cc3)cn2c1` [Compound A56, 3-[4-(1-hydroxy-1-methyl-ethyl)-phenyl]-7-methyl-2H-pyrrolo[1,2-a]pyrazin-1-one], the IC50 is 300 to 3000 nM in assay [1] and less than 300 nM in assay [3]. In addition, the EC50 in assay [2] is less than 300 nM.
Consider `CC(C)(O)c1ccc(-c2cn3cc(F)cc3c(=O)[nH]2)cc1` [Compound A59, 7-fluoro-3-[4-(1-hydroxy-1-methyl-ethyl)-phenyl]-2H-pyrrolo[1,2-a]pyrazin-1-one], for which the IC50 in assay [1] and in assay [3] was less than 300 nM each time. Besides, the EC50 in assay [2] is less than 300 nM.
As to `CC(C)(O)c1ccc(-c2cn3cc(Cl)cc3c(=O)[nH]2)cc1` [Compound A60, 7-chloro-3-[4-(1-hydroxy-1-methyl-ethyl)-phenyl]-2H-pyrrolo[1,2-a]pyrazin-1-one], the IC50 in assay [1] and in assay [3] was less than 300 nM each time. Also, the EC50 in assay [2] is less than 300 nM.
As to `CCC(O)(CC)c1ccc(-c2cn3cc(F)cc3c(=O)[nH]2)cc1` [Compound A61, 3-[4-(1-ethyl-1-hydroxy-propyl)-phenyl]-7-fluoro-2H-pyrrolo[1,2-a]pyrazin-1-one], the IC50 in assay [1] and in assay [3] was less than 300 nM each time. Further, the EC50 in assay [2] is less than 300 nM.
Turning to `CC(C)(F)c1ccc(-c2cn3cc(F)cc3c(=O)[nH]2)cc1` [Compound A63, 7-fluoro-3-[4-(1-fluoro-1-methyl-ethyl)-phenyl]-2H-pyrrolo[1,2-a]pyrazin-1-one], the figures for the 50% inhibitory concentration (IC50) in assay [1] and in assay [3] were 300 to 3000 nM and less than 300 nM, respectively. The EC50 in assay [2] is less than 300 nM.
Turning to `CC(C)(OCCO)c1ccc(-c2cn3cc(F)cc3c(=O)[nH]2)cc1` [Compound A70, 7-fluoro-3-{4-[1-(2-hydroxy-ethoxy)-1-methyl-ethyl]-phenyl}-2H-pyrrolo[1,2-a]pyrazin-1-one], the IC50 in assay [1] and in assay [3] was less than 300 nM throughout. Besides, in assay [2], the EC50 is less than 300 nM.
Turning to `COCCOC(C)(C)c1ccc(-c2cn3cc(F)cc3c(=O)[nH]2)cc1` [Compound A71, 7-fluoro-3-{4-[1-(2-methoxy-ethoxy)-1-methyl-ethyl]-phenyl}-2H-pyrrolo[1,2-a]pyrazin-1-one], the IC50 in assay [1] was 300 to 3000 nM; in assay [3] it was less than 300 nM. The EC50 in assay [2] lay within 300 to 3000 nM.
For `CC(C)(N)c1ccc(-c2cn3cc(F)cc3c(=O)[nH]2)cc1` [Compound A72, 3-[4-(1-amino-1-methyl-ethyl)-phenyl]-7-fluoro-2H-pyrrolo[1,2-a]pyrazin-1-one], the IC50 in assay [1] and in assay [3] was less than 300 nM throughout. Besides, the EC50 in assay [2] is 3000 to 50000 nM.
On to `CC1(c2ccc(-c3cn4cc(F)cc4c(=O)[nH]3)cc2)CCCO1` (stereo not drawn) [Compound A73, 7-fluoro-3-[4-(2-methyl-tetrahydro-furan-2-yl)-phenyl]-2H-pyrrolo[1,2-a]pyrazin-1-one], for which the IC50 in assay [1] and in assay [3] was less than 300 nM throughout. Besides, in assay [2], the EC50 was less than 300 nM.
With `O=c1[nH]c(-c2ccc(C3CCNCC3)cc2)cn2cccc12` [Compound A75, 3-(4-piperidin-4-yl-phenyl)-2H-pyrrolo[1,2-a]pyrazin-1-one], the IC50 in assay [1] and in assay [3] was less than 300 nM in each case. Moreover, the EC50 in assay [2] lay in the range of 300 to 3000 nM.
For the compound `O=c1[nH]c(-c2ccc(C3CCNC3)cc2)cn2cccc12` (stereo not drawn) [Compound A76, 3-(4-Pyrrolidin-3-yl-phenyl)-2H-pyrrolo[1,2-a]pyrazin-1-one], the IC50 in assay [1] was 300 to 3000 nM; in assay [3], less than 300 nM. Besides, the EC50 in assay [2] was 300 to 3000 nM.
With `CN1CCC(c2ccc(-c3cn4cccc4c(=O)[nH]3)cc2)CC1` [Compound A79, 3-[4-(1-methyl-piperidin-4-yl)-phenyl]-2H-pyrrolo[1,2-a]pyrazin-1-one], the concentration for half-maximal inhibition (IC50) in assay [1] and in assay [3] was less than 300 nM each time. Besides, the EC50 in assay [2] was in the range of 3000 to 50000 nM.
For the compound `CN1CCC(c2ccc(-c3cn4cccc4c(=O)[nH]3)cc2)C1` (stereo not drawn) [Compound A80, 3-[4-(1-methyl-pyrrolidin-3-yl)-phenyl]-2H-pyrrolo[1,2-a]pyrazin-1-one], the IC50 in assay [1] and in assay [3] was 300 to 3000 nM in each case. The EC50 in assay [2] lay in the range of 3000 to 50000 nM.
As for `O=c1[nH]c(-c2ccc(C3(O)CCC3)cc2)cn2cccc12` [Compound A111], the IC50 in assay [1] and in assay [3] was less than 300 nM throughout. In addition, in assay [2], the EC50 is less than 300 nM.
